The supplement of paper PMC4932681

Assays:
ZR-75-1 Tam2 [1] = assay: relative IC50 (midpoint of fitted logistic curve, plateau may be below 50% inhibition; CellTiter-Glo viability); higher = less potent; details: 4-OH-tamoxifen in medium 1 µM; 72 h
How it was run: (§1)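 Drug sensitivity score, relative IC50 as the curve midpoint, and top-dose inhibition were derived from logistic dose–response fits in the Breeze pipeline. These fits used CellTiter-Glo viability, read on a PHERAstar and normalised to vehicle-only and positive controls. Breast cancer cell lines and resistant derivatives had been incubated for 72 h at 37 °C in 384-well plates holding library drugs at five concentrations spanning a 10 000-fold range. Resistant lines were grown in medium with 1 μM of the selecting drug.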

BT-474 Tam2 [2] = assay: as above; details: 4-OH-tamoxifen in medium 1 µM; 72 h
How it was run: as §1

T-47D Tam1 [3] = assay: as above; details: 4-OH-tamoxifen in medium 1 µM; 72 h
How it was run: as §1

T-47D Tam2 [4] = assay: as above; details: 4-OH-tamoxifen in medium 1 µM; 72 h
How it was run: as §1

ZR-75-1 Tam1 [5] = assay: as above; details: 4-OH-tamoxifen in medium 1 µM; 72 h
How it was run: as §1

ZR-75-1 [6] = assay: as above; details: 72 h
How it was run: as §1

BT-474 [7] = assay: as above; details: 72 h
How it was run: as §1

T-47D [8] = assay: drug sensitivity score (DSS) (DSS (dimensionless)); higher = more sensitive; extreme values may be limits of the assay; details: 72 h
Experimental: (§2)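 FIMM FO2B library drugs were tested at 5 concentrations (10,000-fold range) for 72 h, with CellTiter-Glo viability normalised to DMSO and benzethonium chloride controls. The Drug Sensitivity Score (DSS) is computed from the fitted logistic dose-response curve (area-based; 0 = inactive). Resistant lines and the 'in 1µM tamoxifen' arms were tested in 1 µM 4-OH-tamoxifen.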

ZR-75-1 Tam2 [9] = assay: as above; details: 4-OH-tamoxifen in medium 1 µM; 72 h
Experimental: as §2

BT-474 Tam2 [10] = assay: as above; details: 4-OH-tamoxifen in medium 1 µM; 72 h
Experimental: as §2

BT-474 Tam1 [11] = assay: as above; details: 4-OH-tamoxifen in medium 1 µM; 72 h
Experimental: as §2

T-47D Tam1 [12] = assay: as above; details: 4-OH-tamoxifen in medium 1 µM; 72 h
Experimental: as §2

MCF-7 [13] = assay: as above; details: 72 h
Experimental: as §2

MCF-7 Tam1 = assay: as above; details: 4-OH-tamoxifen in medium 1 µM; 72 h
Experimental: as §2

T-47D Tam2 [14] = assay: as above; details: 4-OH-tamoxifen in medium 1 µM; 72 h
Experimental: as §2

ZR-75-1 Tam1 [15] = assay: as above; details: 4-OH-tamoxifen in medium 1 µM; 72 h
Experimental: as §2

ZR-75-1 [16] = assay: as above; details: 72 h
Experimental: as §2

BT-474 [17] = assay: as above; details: 72 h
Experimental: as §2

T-47D [18] = assay: relative IC50 (midpoint of fitted logistic curve, plateau may be below 50% inhibition; CellTiter-Glo viability); higher = less potent; details: 72 h
How it was run: as §1

MCF-7 [19] = assay: as above; details: 72 h
How it was run: as §1

BT-474 Tam1 [20] = assay: as above; details: 4-OH-tamoxifen in medium 1 µM; 72 h
How it was run: as §1

| Compound | relative IC50 (ZR-75-1 Tam2 [1]) [nM] | relative IC50 (BT-474 Tam2 [2]) [nM] | relative IC50 (T-47D Tam1 [3]) [nM] | relative IC50 (T-47D Tam2 [4]) [nM] | relative IC50 (ZR-75-1 Tam1 [5]) [µM] | relative IC50 (ZR-75-1 [6]; 4-OH-tamoxifen in medium 0 µM) [µM] | relative IC50 (BT-474 [7]; 4-OH-tamoxifen in medium 1 µM) [µM] | drug sensitivity score (T-47D [8]; 4-OH-tamoxifen in medium 0 µM) | drug sensitivity score (T-47D [8]; 4-OH-tamoxifen in medium 1 µM) | drug sensitivity score (ZR-75-1 Tam2 [9]) | drug sensitivity score (BT-474 Tam2 [10]) | drug sensitivity score (BT-474 Tam1 [11]) | drug sensitivity score (T-47D Tam1 [12]) | drug sensitivity score (MCF-7 [13]; 4-OH-tamoxifen in medium 0 µM) | drug sensitivity score (MCF-7 [13]; 4-OH-tamoxifen in medium 1 µM) | drug sensitivity score (MCF-7 Tam1) | drug sensitivity score (T-47D Tam2 [14]) | drug sensitivity score (ZR-75-1 Tam1 [15]) | drug sensitivity score (ZR-75-1 [16]; 4-OH-tamoxifen in medium 0 µM) | drug sensitivity score (ZR-75-1 [16]; 4-OH-tamoxifen in medium 1 µM) | drug sensitivity score (BT-474 [17]; 4-OH-tamoxifen in medium 0 µM) | drug sensitivity score (BT-474 [17]; 4-OH-tamoxifen in medium 1 µM) | relative IC50 (T-47D [18]; 4-OH-tamoxifen in medium 0 µM) [µM] | relative IC50 (T-47D [18]; 4-OH-tamoxifen in medium 1 µM) [µM] | relative IC50 (MCF-7 [19]; 4-OH-tamoxifen in medium 0 µM) [nM] | relative IC50 (MCF-7 [19]; 4-OH-tamoxifen in medium 1 µM) [nM] | relative IC50 (ZR-75-1 [6]; 4-OH-tamoxifen in medium 1 µM) [µM] | relative IC50 (BT-474 [7]; 4-OH-tamoxifen in medium 0 µM) [µM] | relative IC50 (BT-474 Tam1 [20]) [nM] |
| --- | --- | --- | --- | --- | --- | --- | --- | --- | --- | --- | --- | --- | --- | --- | --- | --- | --- | --- | --- | --- | --- | --- | --- | --- | --- | --- | --- | --- | --- |
| COc1cc(Nc2ncc3c(n2)-c2ccc(Cl)cc2C(c2c(F)cccc2OC)=NC3)ccc1C(=O)O [Alisertib (MLN8237)] | > 10000 | > 10000 | 1050 | 821 | > 10 | > 10 | 3.45 | 3.12 | 0.856 | 0 | 0 | 0.0274 | 3.59 | 0.284 | 0 | 0.522 | 4.18 | 0 | 0 | 0 | 0.464 | 1.48 |  |  |  |  |  |  |  |
| CS(=O)(=O)c1ccc(C(=O)Nc2ccc(Cl)c(-c3ccccn3)c2)c(Cl)c1 [Vismodegib] |  | > 10000 | > 10000 | > 10000 | > 10 | > 10 | > 10 | 0 | 0 | 0 | 0 | 0.264 | 0 | 0 | 0 | 0 | 0 | 0 | 0 | 0 | 0 | 0 | > 10 | > 10 | > 10000 | > 10000 | > 10 | > 10 |  |
| Nc1ccccc1NC(=O)c1ccc(CNc2nccc(-c3cccnc3)n2)cc1 [Mocetotinostat (MGCD0103)] | 1480 | 1210 | 688 | 1390 |  | 2.72 | 1.38 | 4.36 | 4.03 | 2.62 | 8.98 | 7.26 | 6.2 | 6.98 | 4.99 | 0.799 | 3.42 | 2.33 | 1.76 | 1.86 | 5.13 | 9.43 | 3.29 | 3.22 | 1760 | 2000 |  | 2.06 | 2150 |
| Cc1ccc(NC(=O)c2ccc(CN3CCN(C)CC3)cc2)cc1Nc1nc(-c2cccnc2)cs1 [Masitinib] | 2580 | 2570 | 1780 | 3230 |  | > 10 | 3.64 | 1.85 | 2.81 | 1.85 | 5.8 | 4.94 | 2.68 | 3.51 | 1.67 | 1.1 | 1.99 | 0.886 | 0 | 0.352 | 0.359 | 3.44 | 3.57 | 3.46 | 1540 | 3770 |  |  | 3350 |
